In US20230172933A1, “USE OF A COMPOUND OR COMPOSITION COMPRISING AN INHIBITOR OF NLRP1 INFLAMMASOME ACTIVATION FOR THE TREATMENT OF HUMAN AIRWAY INFLAMMATION” (Nanyang Technological University, priority 2020, published 2023):
“Also recorded” adds a separate entry of the source. Peptide text beside a SMILES is read from it. * marks the point of attachment. Cbz = O=C(OCc1ccccc1)*

Legend:
NLRP1 = NLRP1 self-oligomerization (BN-PAGE) and cleavage fragment (SDS-PAGE/Western blot) in 293T-NLRP1-FLAG cells transfected with HRV14-3Cpro; format: cell-based, human; conditions: for stabilization of the post-cleavage NLRP1 fragment (a.a. 131-1213): 293T-NLRP1-FLAG cells transfected with HRV14-3Cpro, Western blot; for HRV14-3Cpro-induced NLRP1 self-oligomerization: 293T-NLRP1-FLAG cells, BN-PAGE, drugs for 24 hours, MG132 2.5 μM
human NLRP1 inflammasome = assay: HRV14-3Cpro-induced ASC-GFP speck formation in 293T-ASC-GFP-NLRP1-FLAG reporter cells; format: cell-based; conditions: 293T-ASC-GFP-NLRP1-FLAG cells transfected with HRV14-3Cpro; MLN4924 1 μM, MG132 2.5 μM, Bortezomib 0.5 μM, phenylalanine 1 mM; 24 hours
[1] = system: NLRP1 inflammasome in HRV16-infected NHBEs; assay: HRV16-induced IL-1β and IL-18 secretion in NHBEs (ELISA); format: cell-based, human; conditions: HRV16 MOI=5, 33° C., 48 hours, pre-treated: MLN4924 1 μM, Bortezomib 1 μM, MCC950 5 μM, Rupintrivir 10 nM
Protocol: (§1) (A) Expression levels of NLRP1 vs. NLRP3 (RNAseq FKPM) in NHBEs. n=21, independent cultures of pooled NHBEs from healthy donors. (B) Expression of NLRP1 vs. NLRP3 in healthy human nasal biopsy. Puncta: positive staining by RNAscope. Nuclei staining: hematoxylin. (C) Overview of cytokine profiling of by HRV16-infected and Talabostat-treated NHBEs. (D) Cells were inoculated with HRV16 at MOI=5 and cultured at 33° C. for 48 hours. Luminex array was performed on conditioned media after removing cell debris. n=3 independent infections and treatment. Cytokines/chemokines that were induced at least 5 fold (p<0.05, Student's t test, lognormal values) are represented by square boxes. […] NHBEs were pretreated with MCC950 (5 μM) or Rupintrivir (10 nM) before HRV16 inoculation or Talabostat (2 μM) treatment. […] (G) Overview of apical HRV infection 3D human bronchial epithelial cultures. (H) Alcian blue (AB)/periodic acid-Schiff (PAS) staining of HRV16-infected (MOI=3) and Talabostat (2 μM)-treated 3D human bronchial epithelial cultures. (1) IL-18 level in apical or basal media 48 hours post-infection or Talabostat treatment. **P<0.01, ***P<0.001, ****P<0.0001 (Two-way ANOVA). n=3 independent infected/treated cultures. (J) Secretion of cleaved IL-1β and IL-18 and ASC oligomerization in HRV16-infected primary NHBEs. Cells were inoculated with HRV16 (MOI=5) or treated with Talabostat (2 μM) for 48 hours at 33° C.
(A) Endogenous NLRP1, ASC and caspase-1 are indispensable for HRV16-induced IL-18 secretion in NHBEs. Cas9-control, NLRP1, ASC and CASP1 KO NHBEs were infected with HRV16 as before. Conditioned media were harvested 48 hours post-infection. (B) NLRP1 is genetically required for HRV16-induced IL-18 cleavage and ASC oligomerization. Cas9 control, NLRP1 and ASC KO NHBEs were infected with HRV16 as before. Cleaved IL-18 are marked with arrows. (C) Mutating the NLRP1 cleavage site abrogates HRV16-triggered IL-18 secretion in NHBEs. NLRP1 KO NHBEs were rescued with lentiviral constructs expressing FLAG-tagged NLRP1^WT or NLRP1^Q130A, which carried silent mutations at the PAM sites. The rescued cells were infected with HRV16 or treated with Talabostat. Conditioned media was analyzed by IL-18 ELISA. **P<0.01, ***P<0.001, n=3 replicates from one of two independent infections. (D) Q130A abrogates NLRP1 cleavage, IL-18 maturation and ASC oligomerization in NHBEs. NLRP1 KO or NLRP1^WT- or NLRP1^Q130A-rescued cells were infected with HRV16 or treated with Talabostat. Cells were harvested 48 hours post infection. Arrow: NLRP1 cleavage product in lane 8 HRV16. *: Non-specific NLRP1 degradation product that occurs right below the a.a. 131-1213 cleavage fragment. See also FIG. 3E, 5E, 5D. (E) MLN4924 and Bortezomib blocks HRV16-induced IL-18 secretion. NHBEs were pre-treated with MLN4924 (1 μM) or Bortezomib (1 μM) before HRV16 infection or Talabostat treatment. IL-18 levels were measured with ELISA. ****, p<0.0001 (Two-way ANOVA), n=3 independent infections/treatment. (F) MLN4924 and Bortezomib blocks HRV16-induced IL-1β secretion. […] Lysates from HRV16-infected NHBEs in FIGS. 9E-F were analyzed by Western blot 48 hours post HRV16 inoculation.
(§2) The following antibodies were used in this study: c-Myc (Santa Cruz Biotechnology #sc-40), HA tag (Santa Cruz Biotechnology, #sc-805), GAPDH (Santa Cruz Biotechnology, #sc-47724), ASC (Adipogen, #AL-177), CASP1 (Santa Cruz Biotechnology, #sc-622), IL1B (R&D systems, #AF-201), FLAG (SigmaAldrich, #F3165), GFP (Abcam, #ab290), NLRP1 (R&D systems, #AF6788), IL18 (Abcam ab207324) and VP2 (QED Bioscience, #18758). HRV16-3Cpro was detected by rabbit serum, a kind gift from Dr. Ann Palmenberg and Dr. James Gern (University of Wisconsin). Cytokine and chemokine measurements were carried out with human IL-1B ELISA kit (BD, #557953), human IL-18 ELISA kit (MBL Bioscience, #7620) and Immune Monitoring 65-Plex Human ProcartaPlex™ Panel (ThermoFisher EPX650-10065-901). […]

[2] = system: endogenous NLRP1 inflammasome; assay: Endogenous NLRP1 inflammasome in doxycycline-induced Tet-ON HRV14-3Cpro N/TERT keratinocytes; format: cell-based, human; conditions: doxycycline 24 hours; for mature IL-1β secretion upon HRV14-3Cpro induction: Western blot, ELISA
[3] = system: NLRP1 cleavage by HRV16 3Cpro; assay: NLRP1 cleavage in HRV16-infected HeLa-Ohio-NLRP1-HA cells; format: cell-based, human; conditions: HRV16 MOI=1
Protocol: (A) HRV16 infection causes NLRP1 cleavage in HeLa-Ohio-NLRP1-HA cells. MOI=1. (B) Q130A abrogates HRV16-induced NLRP1 cleavage and ASC-GFP oligomerization. HeLa-Ohio-ASC-GFP-NLRP1WT or NLRP1^Q130A cells were infected with HRV16 at MOI=1 at 33° C. Cell pellets were harvested 48 hours post infection. (C) The effect of HRV16 infection on ASC-GFP speck formation in HeLa-Ohio-ASC-GFP cells expressing wild-type NLRP1 or NLRP1^Q130A. ***P<0.001 (Two-way ANOVA). n=3 replicates from one of two independent infections, >100 cells per condition. (D) Representative images of ASC-GFP specks in HeLa-Ohio-ASC-GFP cells expressing wild-type NLRP1 or NLRP1^Q130A. Arrows: ASC-GFP specks. Note that in this cell line the ASC-GFP specks appear less compact, even in Talabostat-treated positive control cells. […]
The effect of live HRV infection in disease-relevant human epithelial cell types was then examined. In HeLa-Ohio cells overexpressing NLRP1-HA, robust HRV16 viral replication was achieved 16 hours post inoculation (MOI=1) as detected by the accumulation of the viral capsid protein VP2 (FIG. 8A, lanes 4, 5, 10 and 11). […] Using HeLa-Ohio cells that additionally expressed ASC-GFP, we next tested whether HRV16 infection could lead to NLRP1 inflammasome complex assembly. […]

[4] = system: NLRP1 inflammasome in Talabostat-treated NHBEs; assay: Talabostat-induced IL-1β and IL-18 secretion in NHBEs (ELISA); format: cell-based, human; conditions: Talabostat 2 μM, pre-treated: MLN4924 1 μM, MCC950 5 μM, Rupintrivir 10 nM
Protocol: as §1
(A) Endogenous NLRP1, ASC and caspase-1 are indispensable for HRV16-induced IL-18 secretion in NHBEs. Cas9-control, NLRP1, ASC and CASP1 KO NHBEs were infected with HRV16 as before. Conditioned media were harvested 48 hours post-infection. (B) NLRP1 is genetically required for HRV16-induced IL-18 cleavage and ASC oligomerization. Cas9 control, NLRP1 and ASC KO NHBEs were infected with HRV16 as before. Cleaved IL-18 are marked with arrows. […] Conditioned media was analyzed by IL-18 ELISA. **P<0.01, ***P<0.001, n=3 replicates from one of two independent infections. […] IL-18 levels were measured with ELISA. ****, p<0.0001 (Two-way ANOVA), n=3 independent infections/treatment. […] Lysates from HRV16-infected NHBEs in FIGS. 9E-F were analyzed by Western blot 48 hours post HRV16 inoculation.
as §2, with “Wisconsin).” for “Wisconsin). Cytokine and chemokine measurements were carried out with human IL-1B ELISA kit (BD, #557953), human IL-18 ELISA kit (MBL Bioscience, #7620) and Immune Monitoring 65-Plex Human ProcartaPlex™ Panel (ThermoFisher EPX650-10065-901).”

Row | Compound | stabilization of the post-cleavage NLRP1 fragment (a.a. 131-1213) (NLRP1) | HRV14-3Cpro-induced ASC-GFP speck formation (human NLRP1 inflammasome) | HRV16-induced IL-1β secretion [1] | HRV16-induced IL-18 secretion [1] | HRV16-induced IL-1β secretion ([1]; listed as bortezomib) | HRV16-induced IL-18 secretion ([1]; listed as bortezomib) | ASC oligomerization upon HRV14-3Cpro induction [2] | mature IL-1β secretion upon HRV14-3Cpro induction [2] | HRV14-3Cpro-induced NLRP1 self-oligomerization (NLRP1) | NLRP1 cleavage [3] | Talabostat-induced IL-1β secretion [4] | Talabostat-induced IL-18 secretion [4]
1 | CC(C)C[C@H](NC(=O)[C@H](Cc1ccccc1)NC(=O)c1cnccn1)B(O)O [Bortezomib, [(1R)-3-methyl-1-[[(2S)-3-phenyl-2-(pyrazine-2-carbonylamino)propanoyl]amino]butyl]boronic acid] | to similar degrees | blocked | blocks | blocks | completely blocked | completely blocked | completely blocked | completely blocked | – | – | – | –
2 | CC(C)C[C@@H](C=O)NC(=O)[C@H](CC(C)C)NC(=O)[C@H](CC(C)C)NC(=O)OCc1ccccc1 [MG132, benzyl N-[(2S)-4-methyl-1-[[(2S)-4-methyl-1-[[(2S)-4-methyl-1-oxopentan-2-yl]amino]-1-oxopentan-2-yl]amino]-1-oxopentan-2-yl]carbamate] (Cbz-Leu-Leu-Leu-aldehyde) | to similar degrees | significantly blocked | – | – | – | – | completely abrogated | completely abrogated | significantly blocked | – | – | –
3 | CCOC(=O)/C=C/[C@H](C[C@@H]1CCNC1=O)NC(=O)[C@@H](CC(=O)[C@@H](NC(=O)c1cc(C)on1)C(C)C)Cc1ccc(F)cc1 [Rupintrivir] | – | – | completely abrogated | completely abrogated | – | – | – | – | – | completely abrogated | – | –
4 | N[C@@H](Cc1ccccc1)C(=O)O [phenylalanine] | – | had no effect | – | – | – | – | – | – | had no effect | – | – | –
5 | CC(C)(O)c1coc(S(=O)(=O)NC(=O)Nc2c3c(cc4c2CCC4)CCC3)c1 [MCC950] | – | – | neither IL-1β nor IL-18 secretion was affected; also recorded: did not affect | neither IL-1β nor IL-18 secretion was affected | – | – | – | – | – | – | neither IL-1β nor IL-18 secretion was affected | neither IL-1β nor IL-18 secretion was affected
